In patent US20250223552A1, “METHOD FOR PREPARING T CELLS FOR ADOPTIVE T CELL THERAPY” (ST. JUDE CHILDREN'S RESEARCH HOSPITAL, INC., priority 2022, published 2025):

How the values were obtained:
[1] = tested on: B7-H3-expressing F420 tumor cells; test: Repeat stimulation assay of B7-H3 CAR-T cells with F420 tumor cells; type: cell-based, murine; details: CAR-T:tumor 3:1, counted every 3 days, FIG. 5
Description: (§1) T cells were transduced with B7-H3 CAR or a control CAR containing only the scFv and transmembrane domain (B7-H3 STOP CAR) and co-cultured with F420 tumor cells at the ratio of 3:1. Cells numbers were assessed every 3 days. Data are compiled from at least two independent experiments. Data are shown as mean±s.e.m. *p<0.05; two-way ANOVA.
(§2) Repeat Stimulation Assay. For repeat stimulation assays, 3×10^5 tumor cells (GL261, F420) were plated in a 24-well plate and allowed to adhere for 4-6 hours at 37° C., CAR-T cells (1×10^6) were then added to the wells containing tumor cells without any exogenous cytokines (tumor: CAR-T cell ratio=1:3). After 3 days of co-culture, CAR-T cells were lifted by gentle pipetting to avoid disrupting adherent tumor cells, and the number of T cells was determined using a hemocytometer. Stimulations and cell counts were repeated every 3 days with the same tumor cells.
(§3) Currently the most widely used adoptive T cell therapy employs the use of CARs. However, the use of CAR-T cells for the treatment of solid tumors remains challenging (Lim & June whether CAR-T cell (2017) Cell 168:724-740). […] The ability of B7-H3 CAR-T cells to control the growth of F420 cells was then assessed in vivo.

murine B7-H3 CAR-T cells = test: Phenotype of B7-H3 CAR-T cells generated from T cells transiently treated with Arid1a inhibitor; type: cell-based; details: T cells activated 2 days with inhibitor, B7-H3 CAR transduction, additional 6 days culture
Description: Murine CAR-T cells were generated as described before (Haydar et al. (2021) Neuro-Oncol. 23:999-1011) with modification. Naïve CD8^+ T cells from 6-8 weeks old CD45.1^+ mice were activated with plate bound anti-CD3ε (1 μg/ml, Bio-X-Cell), anti-CD28 (2 μg/ml, Bio-X-Cell) and 50 U/ml rhIL-2 (Peprotech). On day 2 post-activation, CD8^+ T cells were transduced with retrovirus expressing B7-H3-CAR or control CAR on recombinant human fibronectin sold under the tradename RETRONECTIN® (Takara)-coated non-tissue culture treated plate in complete RPMI medium supplemented with 50 U/ml rhIL-2. At 48 hours after transduction, CAR-T cells were harvested and expanded in the presence of 10 ng/ml rhIL-15 (Peprotech) for another 3 days and then used d for in vivo and in vitro experiments.
as §3

F420 tumor = test: F420 tumor-bearing mice treated with B7-H3 CAR-T cells pre-treated with Arid1a inhibitor; type: in vivo
Description: Data are representative of two independent experiments. Data are shown as mean±s.e.m. *p<0.05, ***p<0.001; two-way ANOVA.
Data are representative of two independent experiments. Log-rank (Mantel-Cox) test was performed for comparing survival curves.
For CAR-T tumor models, the murine osteosarcoma cell line F420 was derived from singly floxed p53+/F-Col2.3 transgenic mice (Zhao et al. (2015) Oncogene 34:5069-5079); 0.5×10^6 F420 cells were injected subcutaneously into naïve mice. Seven days after tumor transplant, 5×10^6 B7-H3 CAR-T cells were transferred i.v. without lymphodepleting chemotherapy and tumor size was measured every two days.
Currently the most widely used adoptive T cell therapy employs the use of CARs. However, the use of CAR-T cells for the treatment of solid tumors remains challenging (Lim & June whether CAR-T cell (2017) Cell 168:724-740). To examine function is enhanced by acute Arid1a inhibition, a CAR targeting murine B7-H3 (Haydar et al. (2021) Neuro-Oncol. 23:999-1011) was used in two B7-H3-positive cell lines, murine osteosarcoma F420 (Zhao et al. (2015) Oncogene 34:5069-5079; Kenneth et al. (2021) Mol. Ther. 29:326-326) and glioma GL261 (Haydar et al. (2021) Neuro-Oncol. 23:999-1011). Murine T cells were activated for 2 days in the presence or absence of the Arid1a inhibitor, followed by retroviral transduction of the B7-H3 CAR to generate CAR-T cells. […] The ability of B7-H3 CAR-T cells to control the growth of F420 cells was then assessed in vivo.

MC38-Ova tumors = test: MC38-Ova tumor growth after adoptive transfer of inhibitor-pretreated OT-I cells; type: in vivo; details: OT-I cells transiently treated with inhibitor during activation, transferred into tumor-bearing mice; FIG. 3
Description: Naïve OT-I CD8^+ T cells were activated with anti-CD3/CD28 in the presence or absence of Arid1a inhibitor for 48 hours followed by expansion for another 4 days. Data are representative of two independent experiments. Data are shown as mean±s.e.m. **p<0.01; two-way ANOVA.
(§4) In Vivo Tumor Transplant Experiment. For B16-Ova and MC38-Ova tumors, 0.5×10^6 tumor cells were injected subcutaneously into naïve mice (7-10 weeks of age). OT-I cells (2×10^6) were transferred i.v. 7 days after tumor injection. Tumors were measured every two days.
(§5) Effective adoptive T cell therapy for cancer is critically dependent upon the use of T cells with long-term memory potential (Lugli et al. (2020) Trends Immunol. 41:17-28; Gattinoni et al. (2012) Nat. Rev. Cancer 12:671-684; Klebanoff et al. (2005) Proc. Natl. Acad. Sci. USA 102:9571-9576; Hurton et al. (2016) Proc. Natl. Acad. Sci. USA 113: E7788-E7797). Therefore, it was determined whether manipulation of CBAF can improve anti-tumor therapy. Accordingly, OT-I cells were transduced with sgRNA for Smarcd2 or control sgRNA, and the transduced cells were transferred into animals that were subsequently infected with Lm-Ova. Animals were then inoculated with B16F10 murine melanoma cells expressing Ova (B16-Ova) at memory phase (day >30 post-infection). Improved control of tumor growth and enhanced survival by the Smarcd2-ablated CD8^+ T cells were observed. […]

human CD8^+ T cells [2] = test: Persistence of inhibitor-pretreated human CD8+ T cells in NSG mice at day 30 after adoptive transfer; type: in vivo; details: transient treatment during activation; recovered after 30 days; FIG. 9
Description: Naïve human CD8^+ T cells were activated with anti-CD3/CD28 in the presence or absence of Arid1a inhibitor for 48 hours followed by expansion in IL-15 containing medium for another 4 days prior to adoptive transfer. Data are representative of two independent experiments. Data are shown as mean±s.e.m. *p<0.05; two-tailed unpaired Student's t-test.
For human CD8^+ T cell experiments, naïve CD8^+ T cells were activated by human CD3/CD28 T cell activator (StemCell) with or without an Arid1a inhibitor (BRD-K98645985; 1 μM; AOBIOUS or MedChemExpress) for two days and cultured in rhIL-15 (10 ng/ml, Peprotech) containing medium. Activated CD8^+ T cells (3×10^6) were then transferred to NOD scid gamma mice sold under the tradename NSG®. After 30 days, splenic cells were analyzed by flow cytometry.
The effect of the Arid1a inhibitor on the differentiation of activated, human CD8^+ T cells was also analyzed. Human naïve CD8^+ T cells from healthy donors were enriched and stimulated with anti-CD3/CD28, following by culturing in IL-15 or IL-2, two cytokines that respectively promote in vitro TMEM-like and TEFF-like cell formation (Buck et al. (2016) Cell 166:63-76; Mitchell et al. (2010) J. Immunol. 184:6719-6730). Arid1a inhibitor was added during different periods of culture. […] After 30 days, T cells were recovered and analyzed.

human CD8^+ T cells [3] = test: Differentiation of activated human naive CD8+ T cells in vitro (TCM, TSCM, TEM markers); type: cell-based; details: treatment during the first 48 hours; anti-CD3/CD28, culture in IL-15 or IL-2; FIG. 8
Description: Naïve human CD8^+ T cells were activated with anti-CD3/CD28 and cultured with IL-15; Arid1a inhibitor was added at the indicated time point (n=6 per group). Data are compiled from at least two independent experiments. Data are representative of two independent experiments. Data shown are as mean±s.e.m. *p<0.05, **p<0.01, ***p<0.001; one-way ANOVA.
Human Naïve CD8^+ T Cell Isolation and Stimulation. Human naive CD8^+ T cells were isolated from apheresis ring obtained from the St. Jude blood donor center. Peripheral blood mononuclear cells (PBMC) were isolated using a density gradient medium sold under the tradename LYMPHOPREP® (StemCell Inc.) following the manufacturer's protocol. Briefly, blood from apheresis ring was mixed with phosphate-buffered saline (PBS) containing 2% fetal bovine serum in 1:1 ratio. The mixture was then layered carefully on a density gradient medium sold under the tradename LYMPHOPREP®. Samples were centrifuged at 4000 rpm for 30 minutes at room temperature without braking. The PBMC layer was aspirated, washed twice with 2% fetal calf serum/PBS before isolation of naïve CD8^+ T cell using the MojoSort Human CD8^+ Naïve T Cell Isolation Kit (Biolegend). Naïve CD8^+ T cells were then stimulated with human T cell activation and expansion reagent sold under the tradename IMMUNOCULT® Human CD3/CD28 T Cell Activator (StemCell Inc.) plus 50 U/ml rhIL-2 or 10 ng/ml rhIL-15 for 2 days and expanded with 50 U/ml rhIL-2 or 10 ng/ml rhIL-15. BRD-K98645985 (1 μM; AOBIOUS or MedChemExpress) was added at the indicated time points. All human studies were in compliance with the Declaration of Helsinki. Blood donors were recruited by the Blood Donor Center at St. Jude Children's Research Hospital. Blood donors provided written consent for research use of their blood products not used in transfusions, which has been reviewed and approved by the Institutional Review Board at St. Jude Children's Research Hospital.
The effect of the Arid1a inhibitor on the differentiation of activated, human CD8^+ T cells was also analyzed. […] After 30 days, T cells were recovered and analyzed.

OT-I CD8^+ T cells = test: OT-I CD8+ T cells activated with anti-CD3/CD28 in presence of Arid1a inhibitor, CD62L by flow cytometry; type: cell-based, mouse; details: inhibitor 1 μM during 48 hours activation, drug removed, additional 2 days culture with IL-2; FIG. 1
Text: Data are compiled from at least two independent experiments. Data are shown as mean±s.e.m. *p<0.05; two-tailed unpaired Student's t-test.
Flow Cytometry. Antibodies from Biolegend included APC/Cy7 anti-human CD8α, BV785 anti-human CD45RA, PE anti-human CD62L, APC anti-human CD27, PE/Cy7 anti-human CCR7, BV421 anti-human CD95, BV785 anti-mouse/human CD44, BV510 anti-mouse KLRG1, KIRAVIA Blue 520 anti-mouse CD62L, BV605 anti-mouse CD127, BV650 anti-mouse CX3CR1, APC anti-mouse CD8α, ALEXA FLUOR® 700 fluorescent dye anti-mouse CD45.2, APC anti-mouse CD98; PE anti-mouse CXCR3 (eBioscience); and BUV395 anti-human CD3, BUV805 anti-human CD45RO; BUV496 anti-mouse CD45.1, BUV805 anti-mouse CD8α were acquired from BD Biosciences. For surface markers, cells were stained for 30 minutes at 4° C. in PBS+2% (w/v) bovine serum albumin (BSA). […] Samples were acquired on CYTEK® Aurora or BD LSRII flow cytometer and analyzed with FlowJo software.
Effective adoptive T cell therapy for cancer is critically dependent upon the use of T cells with long-term memory potential (Lugli et al. (2020) Trends Immunol. 41:17-28; Gattinoni et al. (2012) Nat. Rev. Cancer 12:671-684; Klebanoff et al. (2005) Proc. Natl. Acad. Sci. USA 102:9571-9576; Hurton et al. (2016) Proc. Natl. Acad. Sci. USA 113: E7788-E7797). Therefore, it was determined whether manipulation of CBAF can improve anti-tumor therapy. […]

[4] = tested on: B7-H3-expressing GL261 tumor cells; test: Repeat stimulation assay of B7-H3 CAR-T cells with GL261 tumor cells; type: cell-based, murine; details: CAR-T:tumor 3:1, counted every 3 days, FIG. 4
Description: as §1, with “single-chain variable fragment (scFv)” for “scFv”, “GL261” for “F420”, “***p<0.001;” for “*p<0.05;”
as §2, §3

B16-Ova tumors = test: B16-Ova tumor growth after adoptive transfer of inhibitor-pretreated OT-I cells; type: in vivo; details: OT-I cells transiently treated with inhibitor during activation, transferred into tumor-bearing mice; FIG. 2
Description: Naïve OT-I CD8^+ T cells were activated with anti-CD3/CD28 in the presence or absence of Arid1a inhibitor for 48 hours followed by expansion for another 4 days. Data are representative of two independent experiments. Data are as shown mean±s.e.m. **p<0.01, ***p<0.001; two-way ANOVA.
as §4
as §5, with “post-infection).” for “post-infection). Improved control of tumor growth and enhanced survival by the Smarcd2-ablated CD8^+ T cells were observed.”

[5] = day 9 post-transfer, vs vehicle-treated CAR-T cells

SMILES: CO[C@H]1CN(C)C(=O)c2cc(NC(=O)NC(C)C)ccc2OC[C@H](C)N(Cc2ccc(-c3ccccn3)cc2)C[C@@H]1C [BRD-K98645985]
- expansion of CAR-T cells on repeated stimulation [1]: greater expansion
- CAR expression compared with vehicle-treated controls (murine B7-H3 CAR-T cells): no difference in CAR expression
- CD62L expression of CAR-T cells (murine B7-H3 CAR-T cells): high CD62L expression
- tumor control (F420 tumor growth) (F420 tumor; B7-H3 CAR-T cells from transiently inhibitor-treated T cells vs untreated, FIG. 6): markedly enhanced tumor control
- survival of F420 tumor-bearing mice (F420 tumor; B7-H3 CAR-T cells from transiently inhibitor-treated T cells vs untreated, FIG. 7): markedly enhanced
- number of CAR-T cells among tumor infiltrating lymphocytes (F420 tumor; [5]): higher numbers
- proportion of CD62L^+CD44^+ cells among tumor infiltrating CAR-T cells (F420 tumor; [5]): higher proportion of CD62L^+CD44^+ cells
- control of MC38-Ova tumor growth in vivo by transferred OT-I cells (MC38-Ova tumors): improved the ability of OT-I cells to control
- persistence of activated human T cells in NSG mice (human CD8^+ T cells [2]): enhanced persistence
- propensity to express markers of TCM cells in NSG mice (human CD8^+ T cells [2]): greater propensity to express markers of TCM cells
- generation of cells with markers of T memory stem cells (TSCM, CD45RA^+CCR7^+CD27^+CD95^+) (human CD8^+ T cells [3]): necessary and sufficient to promote the generation
- generation of cells with markers of TCM (CD45RA-CCR7+) (human CD8^+ T cells [3]): necessary and sufficient to promote the generation of cells with markers of TCM
- numbers of cells with markers of effector memory T cells (TEM, CD45RA^+CCR7^−) (human CD8^+ T cells [3]): reduced numbers of cells with markers of effector memory T cells
- generation of cells with the TCM marker CD62L (OT-I CD8^+ T cells): promoted the generation of cells with the TCM marker CD62L
- expansion of CAR-T cells on repeated stimulation [4]: greater expansion
- control of B16-Ova tumor growth in vivo by transferred OT-I cells (B16-Ova tumors): improved the ability of OT-I cells to control
